Assays:
Format in all cases: binding, synthetic construct
protein 18-19 = target: T1, protein 18-19; assay: X-ray crystal structure ([…] Å) and equilibrium ultrafiltration with γ-[…]-ATP
T1 construct: Kd measured on the N-terminal MBP fusion; crystal structure model residues 9-71

protein 18-19 (N32D) = target: T2, protein 18-19 (N32D); assay: equilibrium ultrafiltration with γ-[…]-ATP
T2 construct: 80-residue artificial protein as N-terminal MBP fusion

protein 18-19 (D65V) = target: T3, protein 18-19 (D65V); assay: equilibrium ultrafiltration with γ-[…]-ATP
T3 construct: 80-residue artificial protein as N-terminal MBP fusion

Nc1ncnc2c1ncn2[C@@H]1O[C@H](COP(=O)(O)OP(=O)(O)OP(=O)(O)O)[C@@H](O)[C@H]1O [ATP]
Kd (protein 18-19): 1.1 ± 0.078 µM | Kd (protein 18-19 (N32D)): 0.36 ± 0.012 µM | Kd (protein 18-19 (D65V)): 0.64 ± 0.028 µM
